In one experiment the test system is Klebsiella pneumoniae 20. Briefly: In vitro antibacterial activity, two-fold agar-plate dilution method. The experiment is classed as cell-based. As to conditions: heart infusion agar (HI-agar), incubated at 37°C for 20 hours. The protocol:
(§1) In vitro antibacterial activity was determined by the two-fold agar-plate dilution'method as described below. One loopful of an overnight culture of each test strain in Trypticase soy broth was streaked on heart infusion agar (HI-agar) containing graded concentration of the test compound and incubated at 37°C for 20 hours. The minimal inhibitory concentration (MIC) was expressed in µg/m1.

A further experiment relates to Proteus mirabilis 18. The description is as above. The experiment is classed as cell-based. As to conditions: heart infusion agar (HI-agar), incubated at 37°C for 20 hours. The method, then:
as §1

The results in this text go back to patent EP0010667A1, “Cepham compounds, pharmaceutical compositions containing them and processes for the preparation thereof and of known cephem compounds” (FUJISAWA PHARMACEUTICAL CO., LTD., priority 1978, dated 1980).

≈ marks a conversion by molar mass, not a printed value.

For `CO/N=C(\C(=O)NC1C(=O)N2C(C(=O)O)C(=COC(C)=O)CSC12)c1csc(N)n1` (stereo not drawn) [Test compound, 7-[2-(2-Aminothiazol-4-yl)-2-methoxyimino-acetamido]-3-acetoxymethylenecepham-4-carboxylic acid (syn isomer)], the MIC in the experiment on Klebsiella pneumoniae 20 and in the experiment on Proteus mirabilis 18 was 6.25 µg/mL (≈ 13.7 µM) throughout.

In general, MIC refers to the lowest concentration that inhibits growth of the organism. Higher therefore signals a less susceptible organism.
